The values below are quoted from earlier work in patent US20210134402A1, “METHODS AND SYSTEMS FOR PREDICTING SUCCESS RATES OF CLINICAL TRIALS” (THE TRUSTEES OF COLUMBIA UNIVERSITY IN THE CITY OF NEW YORK, priority 2018, published 2021).

SMILES strings stand for the structures.

For this series the following is noted: trial in follicular lymphoma.

Consider `Nc1ccccc1NC(=O)c1ccc(CNc2nccc(-c3cccnc3)n2)cc1` [mocetinostat], for which the “side effects observed in the trial” value was “anaemia, neutropenia, nausea, and diarrhea”; the trial status result is “put on hold due to toxicity concerns”.
